Experiments:
Type in all cases: in vivo
[1] = tested on: Abutilon theophrasti (ABUTH); assay: Post-emergence application in greenhouse trials; conditions: 7 DAT
Description: (§1) The culture containers used were plastic pots containing loamy sand with approximately 3.0% of humus as substrate. The seeds of the test plants were sown separately for each species.
(§2) For the post-emergence treatment, the test plants were grown to a plant height as indicated below, depending on the plant habit, and only then treated with the active compounds which had been suspended or emulsified in water. To this end, the test plants were either sown directly, and grown in the same containers, or they were first grown separately as seedlings and transplanted into the test containers a few days prior to treatment.
(§3) Depending on the species, the plants were kept at 10-25° C. and 20-35° C., respectively. The test period extended over 2 to 4 weeks. During this time, the plants were tended and their response to the individual treatments was evaluated.
(§4) Evaluation was carried out using a scale from 0 to 100. 100 means no emergence of the plants, or complete destruction of at least the above-ground parts, and 0 means no damage or normal course of growth. A good herbicidal activity is given at values of at least 70, and very good herbicidal activity is given at values of at least 85.
(§5) Herbicide A-1 and topramezone were, together with addition of 0.5 v/v % MSO (methylated sed oil) as adjuvant, formulated in water as distribution medium (water volume 200 l/ha) and sprayed with commercial flat fan nozzles.
(§6) Herbicide A-1 (342 g/l), topramezone (336 g/l) and DMTA-p (720 g/l) were, together with addition of 0.5 v/v % MSO (methylated sed oil) as adjuvant, formulated in water as distribution medium (water volume 200 l/ha) and sprayed with commercial flat fan nozzles.

[2] = tested on: Amaranthus tamariscinus (AMATA); assay: Post-emergence application in greenhouse trials; conditions: 7 DAT
Description: as §1, §2, §3, §4, §5, §6

Avena fatua (AVEFA) = assay: Post-emergence application in greenhouse trials
Description: as §1, §2, §3, §4, §5, §6

[3] = tested on: Brachiaria decumbens (BRADC (BRARU)); assay: Post-emergence application in greenhouse trials
Description: as §1, §2, §3, §4, §5, §6

[4] = tested on: Commelina benghalenis (COMBE); assay: Post-emergence application in greenhouse trials
Description: as §1, §2, §3, §4, §5, §6

[5] = tested on: Digitaria sanguinalis (DIGSA); assay: Post-emergence application in greenhouse trials; conditions: 20 DAT
Description: as §1, §2, §3, §4, §5, §6

Eleusine indica (ELEIN) = assay: Post-emergence application in greenhouse trials; conditions: 7 DAT
Description: as §1, §2, §3, §4, §5, §6

[6] = tested on: Erigeron canadensis (ERICA); assay: Post-emergence application in greenhouse trials; conditions: 20 DAT
Description: as §1, §2, §3, §4, §5, §6

Glycine max (GLXMA) [7] = assay: Post-emergence application in greenhouse trials; conditions: 7 DAT
Description: as §1, §2, §3, §4, §5, §6

Kochia scoparia (KCHSC) = assay: Post-emergence application in greenhouse trials; conditions: 20 DAT
Description: as §1, §2, §3, §4, §5, §6

Setaria virids (SETVI) = assay: Post-emergence application in greenhouse trials
Description: as §1, §2, §3, §4, §5, §6

Zea mays (ZEAMX) [8] = assay: Post-emergence application in greenhouse trials
Description: as §1, §2, §3, §4, §5, §6

[9] = tested on: Abutilon theophrasti (ABUTH); assay: Post-emergence application in field trials; conditions: height 10-12 cm
Description: (§7) Post-Emergence Application of Herbicide A-1 (A-1) and Topramezone (B-1) in Field Trials
(§8) Herbicide A-1 (342 g/l) and topramezone (336 g/l) were, together with addition of 0.25 v/v % MSO (methylated sed oil) as adjuvant, formulated in water as distribution medium (water volume 200 l/ha) and sprayed with commercial flat fan nozzles.

[10] = tested on: Digitaria sanguinalis (DIGSA); assay: Post-emergence application in field trials; conditions: 21 DAT, height 10-15 cm
Description: as §7, §8

Glycine max (GLXMA) [11] = assay: Post-emergence application in field trials; conditions: height 7-11 cm, 7 DAT
Description: as §7, §8

Hordeum vulgare (HORVX) = assay: Post-emergence application in field trials; conditions: height 20-25 cm
Description: as §7, §8

[12] = tested on: Setaria verticillata (SETVE); assay: Post-emergence application in field trials; conditions: height 8-16 cm
Description: as §7, §8

Zea mays (ZEAMX) [13] = assay: Post-emergence application in field trials; conditions: height 50-60 cm
Description: as §7, §8

[14] = 7 DAT, growth stage 11, 2 g ai/ha
[15] = 20 DAT, growth stage 12, 0.5 g ai/ha
[16] = 20 DAT, growth stage 12, 1 g ai/ha
[17] = 7 DAT, growth stage 11, 3.125 g ai/ha
[18] = 7 DAT, growth stage 11, 120 g ai/ha

SMILES: CCOC(=O)COc1ccccc1Oc1nc(-n2c(=O)cc(C(F)(F)F)n(C)c2=O)c(F)cc1Cl [A-1, ethyl 2-[2-[[3-chloro-5-fluoro-6-[3-methyl-2,6-dioxo-4-(trifluoromethyl)pyrimidin-1-yl]-2-pyridyl]oxy]phenoxy]acetate]
- % herbicidal activity ([1]; growth stage 15, 0.5 g ai/ha): 85%
- % herbicidal activity ([1]; ABUTH, growth stage 13, A-1 0.25 g ai/ha): 10%
- % herbicidal activity ([1]; ABUTH, growth stage 13, A-1 1 g ai/ha): 50%
- % herbicidal activity ([2]; growth stage 14, A-1 1 g ai/ha): 80%
- % herbicidal activity (Avena fatua (AVEFA); [14]): 55%
- % herbicidal activity (Avena fatua (AVEFA); 21 DAT, growth stage 11, 2 g ai/ha): 30%
- % herbicidal activity [3, 14]: 50%
- % herbicidal activity ([3]; 20 DAT, growth stage 12, 0.25 g ai/ha): 5%
- % herbicidal activity [3, 15]: 15%
- % herbicidal activity [3, 16]: 30%
- % herbicidal activity ([4]; 20 DAT, growth stage 11, 1 g ai/ha): 5%
- % herbicidal activity ([4]; 21 DAT, growth stage 13, 1 g ai/ha): 80%
- % herbicidal activity ([5]; growth stage 13, 0.25 g ai/ha): 5%
- % herbicidal activity (Eleusine indica (ELEIN); growth stage 13, A-1 1 g ai/ha): 45%
- % herbicidal activity ([6]; growth stage 19, 0.5 g ai/ha): 0%
- % herbicidal activity ([6]; growth stage 19, 2 g ai/ha): 40%
- % herbicidal activity (Glycine max (GLXMA) [7]; growth stage 18, 1 g ai/ha): 90%
- % herbicidal activity (Kochia scoparia (KCHSC); growth stage 24, 0.25 g ai/ha): 0%
- % herbicidal activity (Setaria virids (SETVI); [15]): 10%
- % herbicidal activity (Setaria virids (SETVI); [16]): 15%
- % herbicidal activity (Setaria virids (SETVI); SETVI, growth stage 12, A-1 1 g ai/ha, 7 DAT): 15%
- % herbicidal activity (Setaria virids (SETVI); SETVI, growth stage 12, A-1 2 g ai/ha, 7 DAT): 25%
- % herbicidal activity (Zea mays (ZEAMX) [8]; 7 DAT, growth stage 12, 2 g ai/ha): 60%
- % herbicidal activity (Zea mays (ZEAMX) [8]; 21 DAT, growth stage 12, 2 g ai/ha): 40%
- % herbicidal activity ([9]; 21 DAT, 18 g ai/ha): 92%
- % herbicidal activity ([9]; 42 DAT, 18 g ai/ha): 90%
- % herbicidal activity ([9]; ABUTH, A-1 18 g ai/ha, 7 DAT): 90%
- % herbicidal activity ([10]; 12.5 g ai/ha): 70%
- % herbicidal activity (Glycine max (GLXMA) [11]; A-1 18 g ai/ha): 93%
- % herbicidal activity (Hordeum vulgare (HORVX); 21 DAT, 12.5 g ai/ha): 90%
- % herbicidal activity (Hordeum vulgare (HORVX); 21 DAT, 18 g ai/ha): 95%
- % herbicidal activity (Hordeum vulgare (HORVX); HORVX, A-1 12.5 g ai/ha, 7 DAT): 70%
- % herbicidal activity ([12]; 21 DAT, 12.5 g ai/ha): 45%
- % herbicidal activity ([12]; 42 DAT, 12.5 g ai/ha): 30%
- % herbicidal activity (Zea mays (ZEAMX) [13]; 21 DAT, 12.5 g ai/ha): 70%
- % herbicidal activity (Zea mays (ZEAMX) [13]; 21 DAT, 18 g ai/ha): 75%
- % herbicidal activity (Zea mays (ZEAMX) [13]; 28 DAT, 12.5 g ai/ha): 50%
- % herbicidal activity (Zea mays (ZEAMX) [13]; 28 DAT, 18 g ai/ha): 60%

SMILES: Cc1c(C(=O)c2cnn(C)c2O)ccc(S(C)(=O)=O)c1C1=NOCC1 [B-1, topramezone]
- % herbicidal activity ([1]; growth stage 15, 3.125 g ai/ha): 50%
- % herbicidal activity ([1]; ABUTH, growth stage 13, B-1 3.12 g ai/ha): 45%
- % herbicidal activity ([2]; growth stage 14, B-1 6.25 g ai/ha): 80%
- % herbicidal activity (Avena fatua (AVEFA); [17]): 10%
- % herbicidal activity (Avena fatua (AVEFA); 21 DAT, growth stage 11, 3.125 g ai/ha): 10%
- % herbicidal activity [3, 17]: 50%
- % herbicidal activity ([3]; 20 DAT, growth stage 12, 6.25 g ai/ha): 75%
- % herbicidal activity ([4]; 20 DAT, growth stage 11, 6.25 g ai/ha): 10%
- % herbicidal activity ([4]; 21 DAT, growth stage 13, 3.125 g ai/ha): 35%
- % herbicidal activity ([5]; growth stage 13, 3.12 g ai/ha): 85%
- % herbicidal activity (Eleusine indica (ELEIN); growth stage 13, B-1 3.12 g ai/ha): 80%
- % herbicidal activity ([6]; growth stage 19, 3.12 g ai/ha): 25%
- % herbicidal activity ([6]; growth stage 19, 6.25 g ai/ha): 55%
- % herbicidal activity (Glycine max (GLXMA) [7]; growth stage 18, 3.125 g ai/ha): 20%
- % herbicidal activity (Kochia scoparia (KCHSC); growth stage 24, 6.25 g ai/ha): 60%
- % herbicidal activity (Setaria virids (SETVI); 20 DAT, growth stage 12, 3.12 g ai/ha): 70%
- % herbicidal activity (Setaria virids (SETVI); SETVI, growth stage 12, B-1 6.25 g ai/ha, 7 DAT): 75%
- % herbicidal activity (Zea mays (ZEAMX) [8]; 7 DAT, growth stage 12, 3.125 g ai/ha): 5%
- % herbicidal activity (Zea mays (ZEAMX) [8]; 21 DAT, growth stage 12, 3.125 g ai/ha): 0%
- % herbicidal activity ([9]; 21 DAT, 12.5 g ai/ha): 60%
- % herbicidal activity ([9]; 21 DAT, 18 g ai/ha): 65%
- % herbicidal activity ([9]; 42 DAT, 12.5 g ai/ha): 60%
- % herbicidal activity ([9]; 42 DAT, 18 g ai/ha): 65%
- % herbicidal activity ([9]; ABUTH, B-1 12.5 g ai/ha, 7 DAT): 50%
- % herbicidal activity ([9]; ABUTH, B-1 18 g ai/ha, 7 DAT): 55%
- % herbicidal activity ([10]; 18 g ai/ha): 40%
- % herbicidal activity (Glycine max (GLXMA) [11]; B-1 12.5 g ai/ha): 45%
- % herbicidal activity (Glycine max (GLXMA) [11]; B-1 18 g ai/ha): 45%
- % herbicidal activity (Hordeum vulgare (HORVX); 21 DAT, 12.5 g ai/ha): 0%
- % herbicidal activity (Hordeum vulgare (HORVX); 21 DAT, 18 g ai/ha): 10%
- % herbicidal activity (Hordeum vulgare (HORVX); HORVX, B-1 18 g ai/ha, 7 DAT): 20%
- % herbicidal activity ([12]; 21 DAT, 18 g ai/ha): 45%
- % herbicidal activity ([12]; 42 DAT, 18 g ai/ha): 40%
- % herbicidal activity (Zea mays (ZEAMX) [13]; 21 DAT, 12.5 g ai/ha): 0%
- % herbicidal activity (Zea mays (ZEAMX) [13]; 21 DAT, 18 g ai/ha): 0%
- % herbicidal activity (Zea mays (ZEAMX) [13]; 28 DAT, 12.5 g ai/ha): 0%
- % herbicidal activity (Zea mays (ZEAMX) [13]; 28 DAT, 18 g ai/ha): 0%

SMILES: COC[C@H](C)N(C(=O)CCl)c1c(C)csc1C [C-23, dimethenamid-p (DMTA-p)]
- % herbicidal activity ([1]; growth stage 15, 120 g ai/ha): 0%
- % herbicidal activity (Avena fatua (AVEFA); [18]): 0%
- % herbicidal activity (Avena fatua (AVEFA); 21 DAT, growth stage 11, 120 g ai/ha): 40%
- % herbicidal activity [3, 18]: 10%
- % herbicidal activity ([4]; 21 DAT, growth stage 13, 120 g ai/ha): 10%
- % herbicidal activity (Glycine max (GLXMA) [7]; growth stage 18, 120 g ai/ha): 0%
- % herbicidal activity (Zea mays (ZEAMX) [8]; 7 DAT, growth stage 12, 120 g ai/ha): 0%
- % herbicidal activity (Zea mays (ZEAMX) [8]; 21 DAT, growth stage 12, 120 g ai/ha): 0%

Source: US12588677B2, “Herbicidal compositions comprising topramezone” (BASF SE, priority 2024, dated 2026)
